# Reference: patent US20250114323A1, “METHODS OF REDUCING THE RISK OF CARDIOVASCULAR EVENTS IN PATIENTS WITH LEFT VENTRICULAR HYPERTROPHY” (LEXICON PHARMACEUTICALS, INC., priority 2023, published 2025)
# Where two headings read alike, the source gives them in different places.
# Key:
# [1] = tested on: patients with type 2 diabetes mellitus, chronic kidney disease, and risks for cardiovascular disease; format: in vivo
# Experimental: A multicenter, double-blind clinical trial (SCORED) was conducted in which patients with type 2 diabetes mellitus (glycated hemoglobin level, ≥7%), chronic kidney disease (estimated glomerular filtration rate, 25 to 60 ml per minute per 1.73 m^2 of body-surface area), and risks for cardiovascular disease were randomly assigned in a 1:1 ratio to receive sotagliflozin or placebo. The primary end point was changed during the trial to the composite of the total number of deaths from cardiovascular causes, hospitalizations for heart failure, and urgent visits for heart failure.
# Randomization was stratified according to criteria for heart failure (ejection fraction of ≤40% documented within the past year or hospitalization for heart failure during the previous 2 years) and geographic region (North America, Latin America, western Europe, eastern Europe, or rest of the world).
# Persons 18 years of age or older with type 2 diabetes mellitus with a glycated hemoglobin level of 7% or higher, chronic kidney disease (eGFR, 25 to 60 ml per minute per 1.73 m^2 of body-surface area), and additional cardiovascular risk factors were enrolled. The risk factors consisted of at least one major cardiovascular risk factor in those 18 years of age or older or at least two minor cardiovascular risk factors in those 55 years of age or older. One exclusion criterion was any plan to start an SGLT2 inhibitor during the trial. Written informed consent was obtained from all the patients.
# The original coprimary end points, assessed in time-to-event analyses, were the first occurrence of a major adverse cardiovascular event (MACE, defined as death from cardiovascular causes, non-fatal myocardial infarction, or nonfatal stroke) and the first occurrence of death from cardiovascular causes or hospitalization for heart failure (HHF). The primary end point was the total number of deaths from cardiovascular causes, hospitalizations for heart failure, and urgent visits for heart failure (UVHF).
# The secondary end points were the total number of hospitalizations for heart failure and urgent visits for heart failure; deaths from cardiovascular causes; the total number of deaths from cardiovascular causes, hospitalizations for heart failure, nonfatal myocardial infarctions, and nonfatal strokes; the total number of deaths from cardiovascular causes, hospitalizations for heart failure, urgent visits for heart failure, and events of heart failure during hospitalization; the first occurrence of the composite of a sustained decrease of at least 50% in the eGFR from baseline for at least 30 days, long-term dialysis, renal trans-plantation, or a sustained eGFR of less than 15 ml per minute per 1.73 m^2 for at least 30 days; deaths from any cause; and the total number of deaths from cardiovascular causes, nonfatal myocardial infarctions, and nonfatal strokes. The use of total events allowed for a single patient to have more than one event contributing to the analysis. Subgroup analyses were prespecified.
# All efficacy analyses followed the intention-to-treat principle. To allow for analyses of total events, competing-risk marginal models for recurrent events that were stratified according to heart-failure criteria and geographic region, with deaths not included in a given end point treated as competing terminal events, were applied to generate hazard ratios with Wald 95% confidence intervals and P values. Proportionality was confirmed by interaction terms between trial-group assignment and the logarithm of time. Event rates were summarized by the number of events per 100 patient-years of follow-up, and accrual of events over time was summarized by cumulative incidence functions.
# Total events of myocardial infarction and total events of stroke were evaluated post hoc. Testing for differences between the two groups in adverse events was performed post hoc; P values were obtained from Pearson chi-square tests. […]
# [2] = tested on: patients with reported LVH and no reported hypertension; format: in vivo
# [3] = SCORED overall, sotagliflozin vs placebo
# [4] = SCORED overall, sotagliflozin vs placebo, listed as sotagliflozin
# [5] = reported LVH and no reported hypertension, N = 217
# [6] = reported LVH and no reported hypertension, sotagliflozin vs placebo
smiles,measurement,setting,value
"CCOc1ccc(Cc2cc([C@@H]3O[C@H](SC)[C@@H](O)[C@H](O)[C@H]3O)ccc2Cl)cc1 [Sotagliflozin, (2S,3R,4R,5S,6R)-2-(4-chloro-3-(4-ethoxybenzyl)phenyl)-6-(methylthio) tetrahydro-2H-pyran-3,4,5-triol]",total hospitalizations,[1]; SCORED overall,1923
same,total patient-years spanned by hospitalizations,[1]; SCORED overall,104 patient-years
same,"Deaths from any cause, event rate","[1]; SCORED overall, N = 5292",3.5 Events/100 patient-years
same,"Deaths from any cause, number of events","[1]; SCORED overall, N = 5292",246 number of events
same,"Deaths from cardiovascular causes, event rate","[1]; SCORED overall, N = 5292",2.2 Events/100 patient-years
same,"Deaths from cardiovascular causes, number of events","[1]; SCORED overall, N = 5292",155 number of events
same,"First occurrence of a sustained decrease of ≥50% in the eGFR from baseline for ≥30 days, long-term dialysis, renal transplantation, or sustained eGFR of <15 ml/min/1.73 m^2 for ≥30 days, event rate","[1]; SCORED overall, N = 5292",0.5 Events/100 patient-years
same,"First occurrence of the composite renal end point (sustained ≥50% eGFR decrease, long-term dialysis, renal transplantation, or sustained eGFR <15), number of events","[1]; SCORED overall, N = 5292",37 number of events
same,"Primary end point: total no. of deaths from cardiovascular causes, hospitalizations for HF, and urgent visits for HF, event rate","[1]; SCORED overall, N = 5292",5.6 Events/100 patient-years
same,"Primary end point: total no. of deaths from cardiovascular causes, hospitalizations for HF, and urgent visits for HF, number of events","[1]; SCORED overall, N = 5292",400 number of events
same,"Total no. of deaths from cardiovascular causes, hospitalizations for HF, nonfatal myocardial infarctions, and nonfatal strokes, event rate","[1]; SCORED overall, N = 5292",7.6 Events/100 patient-years
same,"Total no. of deaths from cardiovascular causes, hospitalizations for HF, nonfatal myocardial infarctions, and nonfatal strokes, number of events","[1]; SCORED overall, N = 5292",541 number of events
same,"Total no. of deaths from cardiovascular causes, hospitalizations for HF, urgent visits for HF, and events of HF during hospitalization, event rate","[1]; SCORED overall, N = 5292",6.4 Events/100 patient-years
same,"Total no. of deaths from cardiovascular causes, hospitalizations for HF, urgent visits for HF, and events of HF during hospitalization, number of events","[1]; SCORED overall, N = 5292",453 number of events
same,"Total no. of deaths from cardiovascular causes, nonfatal myocardial infarctions, and nonfatal strokes, event rate","[1]; SCORED overall, N = 5292",4.8 Events/100 patient-years
same,"Total no. of deaths from cardiovascular causes, nonfatal myocardial infarctions, and nonfatal strokes, number of events","[1]; SCORED overall, N = 5292",343 number of events
same,"Total no. of hospitalizations for HF and urgent visits for HF, event rate","[1]; SCORED overall, N = 5292",3.5 Events/100 patient-years
same,"Total no. of hospitalizations for HF and urgent visits for HF, number of events","[1]; SCORED overall, N = 5292",245 number of events
same,"composite renal end point, compared with placebo","[1]; SCORED overall, in words",did not differ significantly
same,"risk of the composite of deaths from cardiovascular causes, hospitalizations for heart failure, and urgent visits for heart failure, compared with placebo","[1]; SCORED overall, in words",lower risk
same,Deaths from any cause: Hazard Ratio (95% CI),[1]; [3],0.99 (0.83-1.18)
same,Deaths from cardiovascular causes: Hazard Ratio (95% CI),[1]; [3],0.90 (0.73-1.12)
same,First occurrence of the composite renal end point: Hazard Ratio (95% CI),[1]; [3],0.71 (0.46-1.08)
same,"Original coprimary end point, first occurrence of death from cardiovascular causes or hospitalization for heart failure: hazard ratio",[1]; [3],0.77
same,"Original coprimary end point, first occurrence of death from cardiovascular causes, nonfatal myocardial infarction, or nonfatal stroke: hazard ratio",[1]; [3],0.84
same,Primary end point: Hazard Ratio (95% CI),[1]; [3],0.74 (0.63-0.88)
same,"Total no. of deaths from cardiovascular causes, hospitalizations for HF, nonfatal myocardial infarctions, and nonfatal strokes: Hazard Ratio (95% CI)",[1]; [3],0.72 (0.63-0.83)
same,"Total no. of deaths from cardiovascular causes, hospitalizations for HF, urgent visits for HF, and events of HF during hospitalization: Hazard Ratio (95% CI)",[1]; [3],0.76 (0.64-0.89)
same,"Total no. of deaths from cardiovascular causes, nonfatal myocardial infarctions, and nonfatal strokes: Hazard Ratio (95% CI)",[1]; [3],0.77 (0.65-0.91)
same,Total no. of hospitalizations for HF and urgent visits for HF: Hazard Ratio (95% CI),[1]; [3],0.67 (0.55-0.82)
same,Deaths from cardiovascular causes: Hazard Ratio (95% CI),[1]; [4],0.90
same,Primary end point: Hazard Ratio (95% CI),[1]; [4],0.74
same,Total no. of hospitalizations for HF and urgent visits for HF: Hazard Ratio (95% CI),[1]; [4],0.67
same,"acute kidney injury, percentage of patients","[1]; human, in vivo",2.2%
same,"diabetic ketoacidosis, percentage of patients","[1]; human, in vivo",0.6%
same,"diarrhea, percentage of patients","[1]; human, in vivo",8.5%
same,"genital mycotic infections, percentage of patients","[1]; human, in vivo",2.4%
same,percentage of patients in whom hypertension developed,"[1]; human, in vivo",2.6%
same,percentage of patients in whom hypotension developed,"[1]; human, in vivo",2.6%
same,percentage of patients with a serious adverse event,"[1]; human, in vivo",23.4%
same,"volume depletion, percentage of patients","[1]; human, in vivo",5.3%
same,"Diarrhea, genital mycotic infections, volume depletion, and diabetic ketoacidosis, frequency compared with placebo",[1]; in vivo,more common
same,"bone fractures, urinary tract infections, severe hypoglycemia, acute kidney injury, or amputations, compared with placebo",[1]; in vivo,no significant between-group differences
same,"percentage of patients with adverse events that occurred or worsened during the treatment period or with events leading to withdrawal of the trial regimen, compared with placebo",[1]; in vivo,no significant differences
same,effect on the SCORED study's primary endpoint in the presence or absence of reported LVH or hypertension at baseline,"[2]; FIG. 1, in words",consistent
same,"Acute Kidney Injury, count","[2]; human, in vivo",6
same,"Acute Kidney Injury, figure in brackets","[2]; human, in vivo",2.8
same,"Any Malignancies of Special Interest, count","[2]; human, in vivo",4
same,"Any Malignancies of Special Interest, figure in brackets","[2]; human, in vivo",1.8
same,"Bone Fractures, count","[2]; human, in vivo",7
same,"Bone Fractures, figure in brackets","[2]; human, in vivo",3.2
same,"Diabetic Ketoacidosis, count","[2]; human, in vivo",1
same,"Diabetic Ketoacidosis, figure in brackets","[2]; human, in vivo",0.5
same,"Diarrhea, count","[2]; human, in vivo",19
same,"Diarrhea, figure in brackets","[2]; human, in vivo",8.8
same,"Genital Mycotic Infections, count","[2]; human, in vivo",2
same,"Genital Mycotic Infections, figure in brackets","[2]; human, in vivo",0.9
same,"Pancreatitis, count","[2]; human, in vivo",1
same,"Pancreatitis, figure in brackets","[2]; human, in vivo",0.5
same,"Severe Hypoglycemia, count","[2]; human, in vivo",2
same,"Severe Hypoglycemia, figure in brackets","[2]; human, in vivo",0.9
same,"Urinary Tract Infections, count","[2]; human, in vivo",20
same,"Urinary Tract Infections, figure in brackets","[2]; human, in vivo",9.2
same,"Venous Thrombotic Events, count","[2]; human, in vivo",3
same,"Venous Thrombotic Events, figure in brackets","[2]; human, in vivo",1.4
same,"Volume Depletion, count","[2]; human, in vivo",10
same,"Volume Depletion, figure in brackets","[2]; human, in vivo",4.6
same,hazard ratio in patients with LVH without hypertension compared with the general population of patients at risk of cardiovascular events,[2]; in words,markedly lower
same,risk of CV events in patients with reported LVH and no reported hypertension,[2]; in words,significantly reduced
same,"3-point MACE + HHF, event rate",[2]; [5],5.5 Events per 100 patient-years
same,"3-point MACE, event rate",[2]; [5],3.1 Events per 100 patient-years
same,3-point MACE + HHF: Hazard Ratio (95% CI),[2]; [6],"0.46 (0.21, 0.99)"
same,3-point MACE: Hazard Ratio (95% CI),[2]; [6],"0.52 (0.21, 1.28)"
